# Read-outs that look alike come from different tables or passages of the source.
# Tests used:
# [1] = system: IL-1α, MMP-9, CXCL9, TGF-β1 expression; experiment: Inflammatory marker gene expression in cornea and conjunctiva (real time PCR), desiccating stress model; assay type: in vivo, mouse; details: topical 30 mg/mL, 5 days DS, vs vehicle
# Description: Female C57BL/6 mice, aged 6 to 8 weeks, were subjected to DS for 5 days (DS5) as described previously (de Paiva et al., 2006b; Niederkorn et al., 2006). Topical bilateral treatment with 1 eye drop per eye (2 μL volume) or subcutaneous injection (4 μL volume), 2 times per day, was initiated on day 1 concurrently with DS and continued through day 4. Treatment with the compound of formula I or dexamethasone phosphate 0.1% was compared to correspondingly treated vehicle controls. Mice were randomized to receive one of the test articles. Control mice were kept in a non-stressed (NS) environment maintained at 50-75% relative humidity without exposure to airflow or scopolamine and were not treated with test or control article. Treatment effects were assessed on corneal staining with Oregon Green Dextran (OGD); expression of inflammatory markers in ocular surface tissues by real time PCR; cell population analysis in draining cervical lymph nodes by FACS analysis; conjunctival T cell infiltration by immunohistochemistry.
# Total RNA was isolated from corneal and conjunctival epithelia that was collected and pooled from 2 eyes (right and left) at each time point from untreated control mice, mice subjected to DS for 5 days (DS5), DS5 mice topically treated with the compound of formula I ([…]) and vehicle treated animals (n=7/group) using a PicoPure™ RNA Isolation Kit (Acturus Bioscience Inc, Mountain View, Calif., USA) following the manufacturer's protocol. Briefly, corneal epithelial cells were scraped and whole conjunctiva was cut and placed in 100 μL of extraction buffer and incubated at 42° C. for 30 minutes. The cell extract was loaded onto a preconditioned purified column, which was centrifuged, treated with DNase (Qiagen, Valencia, Calif., USA) and washed twice with two different wash buffers. The RNA was eluded in 12 μL of low ionic strength buffer. The RNA concentration was measured by absorption at 260 nm using a spectrophotometer (NanoDrop 2000, Thermo Scientific, Wilmington, Del., USA) and samples were stored at −80° C. until use. First-strand cDNA was synthesized from 1 μg of total RNA with random hexamers using M-MuLV reverse transcriptase (Ready-To-Go You-Prime First-Strand Beads; Amersham Pharmacia Biotech, Inc., Piscataway, N.J.) as previously described (de Paiva et al., 2006a).
# A cDNA aliquot (1-4 μL) from samples was used for real time PCR in a total volume of 10 μL containing the following per reaction: 0.3 μL of gene specific Taqman probes used and 5 μL of 2× Taqman Fast PCR Master Mix, (Applied Biosystems). Real time PCR was performed on a StepOnePlus™ Real-Time PCR System (Applied Biosystems) and the parameters consisted of pre-denaturation at 95° C. for 22 sec, followed by 40 cycles of denaturation at 95° C. for 1 sec, annealing and extension at 60° C. for 20 sec. Samples and standards were assayed in duplicate. A non-template control and total RNA without retrotranscription were included in all the experiments to evaluate PCR and DNA contamination of the reagents used. The following mouse Taqman probes were used: IL-1α (Mm00439620); MMP-9 (Mm00442991); CXCL9 (Mm004434946); TGF-β1 (Mm00441724) and HPRT-1 (Mm00446968). The HPRT-1 gene was used as an endogenous reference for each reaction. The results of quantitative PCR were analyzed by the comparative CT method where target change=2-ΔΔ CT. The results were normalized by the CT value of HPRT-1 of the untreated control group (de Paiva et al., 2006b).
# Due to skewed distribution of OGD data, the analysis was done on the log 10 scale to make the data more normally distributed. Log 10 OGD data was averaged across two observers and the left and right eyes. The mixed effects ANOVA model included treatment group as a fixed effect and week as a random effect. 95% and 99% confidence intervals were constructed for the disease (5 day DS vs untreated group kept in separate vivarium) and compound treatment effects (treatment vs vehicle). […]
# [2] = PK study in rabbits, ocular tissue concentrations (LC-MS/MS); assay type: in vivo, New Zealand White rabbits; details: for Tmax: topical or ocular, both studies; for concentration at 6 h: persisted up to 6 hours
# Description: The potassium salt of GW559090, referred to herein as GW559090A, was given to male New Zealand White rabbits by topical ocular administration as a single bilateral drop (Study #1: n=2 rabbits/4 eyes per time point; Study #2: n=3 rabbits/6 eyes per time point). At designated times (0.5, 1, 3, 6 hours post administration), ocular tissues were collected and processed for analysis. Concentrations of GW559090 were measured in cornea and bulbar conjunctiva by liquid chromatography with tandem mass spectrometry (LC-MS/MS).
# [3] = male, New Zealand White, rabbit, conjunctiva, topical, 40 μL (50 mg/mL) GW559090A, read-out: Conjunctival tissue concentration
# [4] = male, New Zealand White, rabbit, cornea, topical, 40 μL (50 mg/mL) GW559090A, read-out: Corneal tissue concentration
# [5] = single topical 40 μL (50 mg/mL) GW559090A
compound,measurement,setting,value
"Cc1ccccc1OCC(=O)N[C@@H](CC(C)C)C(=O)N[C@@H](Cc1ccc(OC(=O)N2CCC(C(N)=O)CC2)cc1)C(=O)O [GW559090, (2S)-3-[4-({[4-(Aminocarbonyl)-1-piperidinyl]carbonyl}oxy)phenyl]-2-[((2S)-4-methyl-2-{[2-(2-methylphenoxy)acetyl]amino}pentanoyl)amino]propanoic acid]",CXCL9 transcripts in cornea,[1],significant decrease
same,CXCL-9 expression in conjunctiva,[1],no change
same,IL-1α expression in conjunctiva,[1],no change
same,IL-1α transcripts in cornea,[1],significant decrease
same,MMP-9 expression in conjunctiva,[1],no change
same,MMP-9 transcripts in cornea,[1],significant decrease
same,TGF-β1 expression in conjunctiva,[1],significant reduction
same,TGF-β1 transcripts in cornea,[1],significant decrease
same,Mean cornea concentrations versus mean conjunctiva concentrations,[2]; 3 and 6 hour postdose,higher
same,Tmax,"[2]; male, New Zealand White, rabbit, bulbar conjunctiva, single topical 40 μL (50 mg/mL) GW559090A, read-out: Tmax in bulbar conjunctiva",60 min
same,concentration at 30 min,[2]; [3],> 3000 ng/mL
same,concentration at 6 h,[2]; [3],~358 ng/mL
same,Tmax,"[2]; male, New Zealand White, rabbit, cornea, single topical 40 μL (50 mg/mL) GW559090A, read-out: Tmax in cornea",30 min
same,concentration at 30 min,[2]; [4],> 3000 ng/mL
same,concentration at 3 h,"[2]; male, New Zealand White, rabbit, cornea, topical, at 3 hours, 40 μL (50 mg/mL) GW559090A, read-out: Corneal tissue concentration",> 1000 ng/mL
same,concentration at 6 h,[2]; [4],~358 ng/mL
same,Mean conjunctiva concentrations quantifiable through,[2]; [5],6 h
same,Mean cornea concentrations quantifiable through,[2]; [5],6 h

# Reference: patent US10413535B2, “Pharmaceutical compositions comprising an integrin ALPHA4 antagonist for use in treating ocular inflammatory conditions” (AXEROVISION, INC., priority 2015, dated 2019)
